Results reported in ChEMBL document CHEMBL5537145, “Design, synthesis and evaluation of novel UDCA-aminopyrimidine hybrids as ATX inhibitors for the treatment of hepatic and pulmonary fibrosis” (Eur J Med Chem, 2024).
Activity calls are given as the source filed them. No cut-off for these calls is given here.

How the values were obtained:
LX-2 [1] = experiment: Anti-hepatic fibrosis activity against TGF-beta1 stimulated human LX2 cells assessed as reduction in alpha-SMA mRNA expression level at 5 to 20 uM incubated for 48 hrs by quantitative real-time PCR analysis; assay type: functional, cell-based; conditions: dose 5-20 µM
LX-2 [2] = experiment: Anti-hepatic fibrosis activity against TGF-beta1 stimulated human LX2 cells assessed as reduction in alpha-SMA protein expression level at 5 to 20 uM incubated for 48 hrs by Western blotting analysis; assay type: functional, cell-based; conditions: dose 5-20 µM
LX-2 [3] = experiment: Anti-hepatic fibrosis activity against TGF-beta1 stimulated human LX2 cells assessed as reduction in COL1A1 protein expression level at 5 to 20 uM incubated for 48 hrs by Western blotting analysis; assay type: functional, cell-based; conditions: dose 5-20 µM
LX-2 [4] = experiment: Anti-hepatic fibrosis activity against TGF-beta1 stimulated human LX2 cells assessed as reduction in Smad3 phosphorylation incubated for 48 hrs by Western blotting analysis; assay type: functional, cell-based; conditions: dose 5-20 µM
Autotaxin [5] = target: T1, Autotaxin (Homo sapiens, UniProt Q13822); experiment: Potency index, ratio of GLPG-1690 IC50 to test compound IC50 for inhibition of human ATX in using LPC as substrate by fluorescence based microplate reader assay
LX-2 [6] = experiment: Anti-hepatic fibrosis activity against TGF-beta1 stimulated human LX2 cells assessed as reduction in COL1A1 mRNA expression level at 5 to 20 uM incubated for 48 hrs by quantitative real-time PCR analysis; assay type: functional, cell-based; conditions: dose 5-20 µM
LX-2 [7] = experiment: Anti-hepatic fibrosis activity against TGF-beta1 stimulated human LX2 cells assessed as inhibition of Smad2/3 nuclear translocation at 10 uM incubated for 48 hrs by DAPI staining based immunofluorescence analysis; assay type: functional, cell-based
LX-2 [8] = experiment: Cytotoxicity against human LX2 cells assessed as reduction in cell viability at 2.5 to 80 uM incubated for 48 hrs by MTT assay; assay type: toxicity, cell-based; conditions: lx-2, 48 h, dose 2.5-80 µM
CCC-HPF-1 [9] = experiment: Anti-pulmonary fibrosis activity against TGF-beta1 stimulated human CCC-HPF-1 cells assessed as reduction in COL1A1 protein expression level at 5 to 20 uM incubated for 48 hrs by Western blotting analysis; assay type: functional, cell-based; conditions: dose 5-20 µM
Autotaxin [10] = target: T1, Autotaxin; experiment: Inhibition of human ATX in using LPC as substrate by fluorescence based microplate reader assay
CCC-HPF-1 [11] = experiment: Anti-pulmonary fibrosis activity against TGF-beta1 stimulated human CCC-HPF-1 cells assessed as reduction in FN mRNA expression level at 5 to 20 uM incubated for 48 hrs by quantitative real-time PCR analysis; assay type: functional, cell-based; conditions: dose 5-20 µM
LX-2 [12] = experiment: Anti-migratory activity against TGF-beta1 stimulated human LX2 cells at 10 uM incubated for 24 hrs by light microscopic analysis; assay type: functional, cell-based
CCC-HPF-1 [13] = experiment: Anti-pulmonary fibrosis activity against TGF-beta1 stimulated human CCC-HPF-1 cells assessed as reduction in COL1A1 mRNA expression level at 5 to 20 uM incubated for 48 hrs by quantitative real-time PCR analysis; assay type: functional, cell-based; conditions: dose 5-20 µM
LX-2 [14] = experiment: Anti-hepatic fibrosis activity against TGF-beta1 stimulated human LX2 cells assessed as reduction in Smad2 phosphorylation incubated for 48 hrs by Western blotting analysis; assay type: functional, cell-based; conditions: dose 5-20 µM
CCC-HPF-1 [15] = experiment: Anti-migratory activity against TGF-beta1 stimulated human CCC-HPF-1 cells at 10 uM incubated for 24 hrs by light microscopic analysis; assay type: functional, cell-based
CCC-HPF-1 [16] = experiment: Effect on total Smad3 level in TGF-beta1 stimulated human CCC-HPF-1 cells at 5 to 20 uM incubated for 48 hrs by Western blotting analysis; assay type: functional, cell-based; conditions: dose 5-20 µM
LX-2 [17] = experiment: Effect on total Smad3 level in TGF-beta1 stimulated human LX2 cells at 5 to 20 uM incubated for 48 hrs by Western blotting analysis; assay type: functional, cell-based; conditions: dose 5-20 µM
CCC-HPF-1 [18] = experiment: Anti-pulmonary fibrosis activity against TGF-beta1 stimulated human CCC-HPF-1 cells assessed as reduction in alpha-SMA mRNA expression level at 5 to 20 uM incubated for 48 hrs by quantitative real-time PCR analysis; assay type: functional, cell-based; conditions: dose 5-20 µM
CCC-HPF-1 [19] = experiment: Cytotoxicity against human CCC-HPF-1 cells assessed as reduction in cell viability at 2.5 to 80 uM incubated for 48 hrs by MTT assay; assay type: toxicity, cell-based; conditions: ccc-hpf-1, 48 h, dose 2.5-80 µM
CCC-HPF-1 [20] = experiment: Effect on total Smad2 level in TGF-beta1 stimulated human CCC-HPF-1 cells at 5 to 20 uM incubated for 48 hrs by Western blotting analysis; assay type: functional, cell-based; conditions: dose 5-20 µM
CCC-HPF-1 [21] = experiment: Anti-pulmonary fibrosis activity against TGF-beta1 stimulated human CCC-HPF-1 cells assessed as reduction in Smad3 phosphorylation incubated for 48 hrs by Western blotting analysis; assay type: functional, cell-based; conditions: dose 5-20 µM
CCC-HPF-1 [22] = experiment: Anti-pulmonary fibrosis activity against TGF-beta1 stimulated human CCC-HPF-1 cells assessed as reduction in alpha-SMA protein expression level at 5 to 20 uM incubated for 48 hrs by Western blotting analysis; assay type: functional, cell-based; conditions: dose 5-20 µM
LX-2 [23] = experiment: Anti-hepatic fibrosis activity against TGF-beta1 stimulated human LX2 cells assessed as reduction in FN protein expression level at 5 to 20 uM incubated for 48 hrs by Western blotting analysis; assay type: functional, cell-based; conditions: dose 5-20 µM
LX-2 [24] = experiment: Effect on total Smad2 level in TGF-beta1 stimulated human LX2 cells at 5 to 20 uM incubated for 48 hrs by Western blotting analysis; assay type: functional, cell-based; conditions: dose 5-20 µM
LX-2 [25] = experiment: Anti-hepatic fibrosis activity against TGF-beta1 stimulated human LX2 cells assessed as reduction in FN mRNA expression level at 5 to 20 uM incubated for 48 hrs by quantitative real-time PCR analysis; assay type: functional, cell-based; conditions: dose 5-20 µM
CCC-HPF-1 [26] = experiment: Anti-pulmonary fibrosis activity against TGF-beta1 stimulated human CCC-HPF-1 cells assessed as reduction in Smad2 phosphorylation incubated for 48 hrs by Western blotting analysis; assay type: functional, cell-based; conditions: dose 5-20 µM
CCC-HPF-1 [27] = experiment: Anti-pulmonary fibrosis activity against TGF-beta1 stimulated human CCC-HPF-1 cells assessed as inhibition of Smad2/3 nuclear translocation at 10 uM incubated for 48 hrs by DAPI staining based immunofluorescence analysis; assay type: functional, cell-based
CCC-HPF-1 [28] = experiment: Anti-pulmonary fibrosis activity against TGF-beta1 stimulated human CCC-HPF-1 cells assessed as reduction in FN protein expression level at 5 to 20 uM incubated for 48 hrs by Western blotting analysis; assay type: functional, cell-based; conditions: dose 5-20 µM

C[C@H](CCC(=O)N1CCc2nc(NC3Cc4ccccc4C3)ncc2C1)[C@H]1CC[C@H]2[C@@H]3[C@@H](O)C[C@@H]4C[C@H](O)CC[C@]4(C)[C@H]3CC[C@]12C
Activity (LX-2 [1]): Active
Activity (LX-2 [2]): Active
Activity (LX-2 [3]): Active
Activity (LX-2 [4]): Dose-Dependent Effect
Ratio IC50 (Autotaxin [5]): 9
Activity (LX-2 [6]): Active
Activity (LX-2 [7]): Active
Activity (LX-2 [8]): Non-Toxic
Activity (CCC-HPF-1 [9]): Active
IC50 (Autotaxin [10]): 7.62 nM
Activity (CCC-HPF-1 [11]): Active
Activity (LX-2 [12]): Active
Activity (CCC-HPF-1 [13]): Active
Activity (LX-2 [14]): Dose-Dependent Effect
Activity (CCC-HPF-1 [15]): Active
Activity (CCC-HPF-1 [16]): inactive
Activity (LX-2 [17]): inactive
Activity (CCC-HPF-1 [18]): Active
Activity (CCC-HPF-1 [19]): Non-Toxic
Activity (CCC-HPF-1 [20]): inactive
Activity (CCC-HPF-1 [21]): Dose-Dependent Effect
Activity (CCC-HPF-1 [22]): Active
Activity (LX-2 [23]): Active
Activity (LX-2 [24]): inactive
Activity (LX-2 [25]): Active
Activity (CCC-HPF-1 [26]): Dose-Dependent Effect
Activity (CCC-HPF-1 [27]): Active
Activity (CCC-HPF-1 [28]): Active

C[C@H](CCC(=O)N1CCc2nc(NC3Cc4ccc(Br)cc4C3)ncc2C1)[C@H]1CC[C@H]2[C@@H]3[C@@H](O)C[C@@H]4C[C@H](O)CC[C@]4(C)[C@H]3CC[C@]12C (some centres undefined)
IC50 (Autotaxin [10]): 15.4 nM

C[C@H](CCC(=O)N1Cc2cnc(NC3Cc4ccccc4C3)nc2C1)[C@H]1CC[C@H]2[C@@H]3[C@@H](O)C[C@@H]4C[C@H](O)CC[C@]4(C)[C@H]3CC[C@]12C
IC50 (Autotaxin [10]): 438 nM

C[C@H](CCC(=O)N1CCc2nc(NCc3cc(Cl)cc(Cl)c3)ncc2C1)[C@H]1CC[C@H]2[C@@H]3[C@@H](O)C[C@@H]4C[C@H](O)CC[C@]4(C)[C@H]3CC[C@]12C
IC50 (Autotaxin [10]): 40.2 nM

C[C@H](CCC(=O)N1CCc2nc(NCCc3ccccc3)ncc2C1)[C@H]1CC[C@H]2[C@@H]3[C@@H](O)C[C@@H]4C[C@H](O)CC[C@]4(C)[C@H]3CC[C@]12C
IC50 (Autotaxin [10]): 57.8 nM

Cc1ccc(CCNc2ncc3c(n2)CCN(C(=O)CC[C@@H](C)[C@H]2CC[C@H]4[C@@H]5[C@@H](O)C[C@@H]6C[C@H](O)CC[C@]6(C)[C@H]5CC[C@]24C)C3)cc1
IC50 (Autotaxin [10]): 168 nM

C[C@H](CCC(=O)N1CCc2nc(NCCc3cccc(Cl)c3)ncc2C1)[C@H]1CC[C@H]2[C@@H]3[C@@H](O)C[C@@H]4C[C@H](O)CC[C@]4(C)[C@H]3CC[C@]12C
IC50 (Autotaxin [10]): 165 nM

C[C@H](CCC(=O)N1CCc2nc(NCCc3ccccc3Cl)ncc2C1)[C@H]1CC[C@H]2[C@@H]3[C@@H](O)C[C@@H]4C[C@H](O)CC[C@]4(C)[C@H]3CC[C@]12C
IC50 (Autotaxin [10]): 102 nM

C[C@H](CCC(=O)N1CCc2nc(NCCc3ccccc3Br)ncc2C1)[C@H]1CC[C@H]2[C@@H]3[C@@H](O)C[C@@H]4C[C@H](O)CC[C@]4(C)[C@H]3CC[C@]12C
IC50 (Autotaxin [10]): 92.5 nM

C[C@H](CCC(=O)O)[C@H]1CC[C@H]2[C@@H]3[C@@H](O)C[C@@H]4C[C@H](O)CC[C@]4(C)[C@H]3CC[C@]12C [URSODIOL]
IC50 (Autotaxin [10]): 9260 nM

C[C@H](CCC(=O)N1CCc2nc(NCCc3ccccc3F)ncc2C1)[C@H]1CC[C@H]2[C@@H]3[C@@H](O)C[C@@H]4C[C@H](O)CC[C@]4(C)[C@H]3CC[C@]12C
IC50 (Autotaxin [10]): 15.6 nM

C[C@H](CCC(=O)N1CCc2nc(NCCc3cccc(F)c3)ncc2C1)[C@H]1CC[C@H]2[C@@H]3[C@@H](O)C[C@@H]4C[C@H](O)CC[C@]4(C)[C@H]3CC[C@]12C
IC50 (Autotaxin [10]): 41.4 nM

C[C@H](CCC(=O)N1CCc2nc(NCCc3ccc(F)cc3)ncc2C1)[C@H]1CC[C@H]2[C@@H]3[C@@H](O)C[C@@H]4C[C@H](O)CC[C@]4(C)[C@H]3CC[C@]12C
IC50 (Autotaxin [10]): 91.7 nM

C[C@H](CCC(=O)N1CCc2nc(NCc3ccccc3)ncc2C1)[C@H]1CC[C@H]2[C@@H]3[C@@H](O)C[C@@H]4C[C@H](O)CC[C@]4(C)[C@H]3CC[C@]12C
IC50 (Autotaxin [10]): 342 nM

C[C@H](CCC(=O)N1CCc2nc(NCCc3c[nH]c4ccccc34)ncc2C1)[C@H]1CC[C@H]2[C@@H]3[C@@H](O)C[C@@H]4C[C@H](O)CC[C@]4(C)[C@H]3CC[C@]12C
IC50 (Autotaxin [10]): 335 nM

C[C@H](CCC(=O)N1CCc2nc(N3CCC(c4ccccc4)CC3)ncc2C1)[C@H]1CC[C@H]2[C@@H]3[C@@H](O)C[C@@H]4C[C@H](O)CC[C@]4(C)[C@H]3CC[C@]12C
IC50 (Autotaxin [10]): 43.9 nM

C[C@H](CCC(=O)N1CCc2nc(NCc3ccc(Br)cc3)ncc2C1)[C@H]1CC[C@H]2[C@@H]3[C@@H](O)C[C@@H]4C[C@H](O)CC[C@]4(C)[C@H]3CC[C@]12C
IC50 (Autotaxin [10]): 243 nM

C[C@H](CCC(=O)N1CCc2nc(NCCc3ccncc3)ncc2C1)[C@H]1CC[C@H]2[C@@H]3[C@@H](O)C[C@@H]4C[C@H](O)CC[C@]4(C)[C@H]3CC[C@]12C
IC50 (Autotaxin [10]): 35.6 nM

C[C@H](CCC(=O)N1CCc2nc(NCCc3cccc(Br)c3)ncc2C1)[C@H]1CC[C@H]2[C@@H]3[C@@H](O)C[C@@H]4C[C@H](O)CC[C@]4(C)[C@H]3CC[C@]12C
IC50 (Autotaxin [10]): 27.7 nM

C[C@H](CCC(=O)N1CCc2nc(NCCc3ccc(Br)cc3)ncc2C1)[C@H]1CC[C@H]2[C@@H]3[C@@H](O)C[C@@H]4C[C@H](O)CC[C@]4(C)[C@H]3CC[C@]12C
IC50 (Autotaxin [10]): 46.3 nM

C[C@H](CCC(=O)N1CCc2nc(NCCCc3ccccc3)ncc2C1)[C@H]1CC[C@H]2[C@@H]3[C@@H](O)C[C@@H]4C[C@H](O)CC[C@]4(C)[C@H]3CC[C@]12C
IC50 (Autotaxin [10]): 165 nM

COc1ccc(CCNc2ncc3c(n2)CCN(C(=O)CC[C@@H](C)[C@H]2CC[C@H]4[C@@H]5[C@@H](O)C[C@@H]6C[C@H](O)CC[C@]6(C)[C@H]5CC[C@]24C)C3)cc1
IC50 (Autotaxin [10]): 136 nM
